Assay results from US9249152B2, “Cyano containing azabenzofuran compounds for the treatment of hepatitis C” (BRISTOL-MYERS SQUIBB COMPANY, priority 2014, dated 2016).
Where two headings read alike, the source gives them in different places.

What was measured:
HCV = details: cited from earlier work
HCV replicon 1a = test: HCV replicon luciferase assay, genotype 1a; format: cell-based; details: Hepatitis C virus
[1] = test system: genotype 1b (Con-1) HCV replicon; test: HCV replicon luciferase assay, genotype 1b (Con-1); format: cell-based; details: genotype 1b HCV replicon, Huh-7 cells, Renilla luciferase, 3 days
Protocol: The cell lines used to evaluate compounds consist of a human hepatocyte derived cell line (Huh-7) that constitutively expresses a genotype 1b (Con-1) HCV replicon or a genotype 1b (Con-1) HCV replicon with an asparagine replacing the cysteine at amino acid 316, or a genotype 2a (JFH-1) replicon, containing a Renilla luciferase reporter gene. These cells were maintained in Dulbecco's modified Eagle medium (DMEM) containing 10% FBS, 100 U/mL penicillin/streptomycin and 1.0 mg/mL G418.
To evaluate compound efficacy, titrated compounds were transferred to sterile 384-well tissue culture treated plates, and the plates were seeded with HCV replicon cells (50 μL at a density of 2.4×10^3 cells/well) in DMEM containing 4% FBS (final DMSO concentration at 0.5%). After 3 days incubation at 37° C., cells were analyzed for Renilla Luciferase activity using the EnduRen substrate (Promega cat #E6485) according to the manufacturer's directions. Briefly, the EnduRen substrate was diluted in DMEM and then added to the plates to a final concentration of 7.5 μM. The plates were incubated for at least 1 h at 37° C. then read on a Viewlux Imager (PerkinElmer) using a luminescence program. The 50% effective concentration (EC50) was calculated using the four-parameter logistic formula noted above.

[2] = Hepatitis C virus, Huh-7, 72 h, read-out: EC50 1b (class)
[3] = Hepatitis C virus, Huh-7, 72 h, read-out: EC50 (uM) 1b

Row | Molecule | EC50 [1, 2] | EC50 [1, 3] | further results
1 | CNC(=O)c1c(-c2ccc(F)cc2)oc2cc(N(CCO)S(C)(=O)=O)c(C3CC3)cc12 [HCV-796] |  |  | hepatic toxicity (HCV; extended dosing of the combination regimens): hepatic toxicity observed during extended dosing of the combination regimens; HCV RNA levels in patients (HCV; patients, single agent or combined with interferon and ribavirin): reduce HCV RNA levels in patients
2 | alpha-interferon and ribavirin |  |  | sustained efficacy, share of patients (HCV; patients): 40%
3 | CNC(=O)c1c(-c2ccc(F)cc2)oc2nc(OCC(F)(F)F)c(-c3cccc(C(=O)NC(C)(C)C#N)c3)cc12 [Compound K9001, 5-(3-((2-cyanopropan-2-yl)carbamoyl)phenyl)-2-(4-fluorophenyl)-N-methyl-6-(2,2,2-trifluoroethoxy)furo[2,3-b]pyridine-3-carboxamide] |  |  | EC50 (HCV replicon 1a; read-out: EC50 for 1a instead): 17.7 nM; EC50 (HCV replicon 1a; read-out: EC50 for 1a instead (class)): < 100 nM
4 | CNC(=O)c1c(-c2ccc(F)cc2)oc2nc(CCC(F)(F)F)c(-c3cccc(C(=O)NC4(C#N)CCCC4)c3)cc12 [Compound 11003] | < 0.1 µM | 0.0046 µM | 
5 | CC[C@H](C)c1nc2oc(-c3ccc(F)cc3)c(C(=O)NC)c2cc1-c1cccc(C(=O)NC(C)(C)C#N)c1 [Compound K11001] | < 0.1 µM | 0.0133 µM | 
6 | CNC(=O)c1c(-c2ccc(F)cc2)oc2nc(NCC(F)(F)F)c(-c3ccc(OC)c(C(=O)NC4(C#N)CC4)c3)cc12 [Compound K5002] | < 0.1 µM |  | 
7 | CNC(=O)c1c(-c2ccc(F)cc2)oc2nc(NCC(F)(F)F)c(-c3cnc(OC)c(C(=O)NC(C)(C)C#N)c3)cc12 [Compound K8001] | < 0.1 µM |  | 
8 | CNC(=O)c1c(-c2ccc(F)cc2)oc2nc(NCC(F)(F)F)c(-c3cccc(C(=O)NC(C)(C#N)C4CC4)c3)cc12 (stereo not drawn) [Compound 20008] |  |  | EC50 ([1]; read-out: EC50 1b (class)): < 0.1 µM
9 | CNC(=O)c1c(-c2ccc(F)cc2)oc2nc(CCC(F)(F)F)c(-c3cccc(C(=O)NC(C)(C#N)C(C)C)c3)cc12 (stereo not drawn) [Compound 11004] | < 0.1 µM |  | 
10 | CNC(=O)c1c(-c2ccc(F)cc2)oc2nc(NCC(F)(F)F)c(-c3ccc(F)c(C(=O)NC(C)(C#N)C4CC4)c3)cc12 (stereo not drawn) [Compound 22006] |  |  | EC50 ([1]; read-out: EC50 1b (class)): < 0.1 µM
11 | CNC(=O)c1c(-c2ccc(F)cc2)oc2nc(CCC(F)(F)F)c(-c3ccc(F)c(C(=O)NC4(C#N)CCC4)c3)cc12 [Compound K1002] | < 0.1 µM |  | 
12 | CNC(=O)c1c(-c2ccc(F)cc2)oc2nc(CCC(F)(F)F)c(-c3cnc(OC)c(C(=O)NC4(C#N)CC4)c3)cc12 [Compound K7003] | < 0.1 µM |  | 
13 | CNC(=O)c1c(-c2ccc(F)cc2)oc2nc(CCC(F)(F)F)c(-c3cccc(C(=O)NC(C)(C#N)CF)c3)cc12 (stereo not drawn) [Compound 11012] | < 0.1 µM |  | 
14 | CNC(=O)c1c(-c2ccc(F)cc2)oc2nc(NCC(F)(F)F)c(-c3ccc(F)c(C(=O)NC4(C#N)CCC4)c3)cc12 [Compound K2003] | < 0.1 µM |  | 
15 | CNC(=O)c1c(-c2ccc(F)cc2)oc2nc(NCC(F)(F)F)c(-c3ccc(F)c(C(=O)NC(C)C#N)c3)cc12 (stereo not drawn) [Compound 22001] | < 0.1 µM | 0.0055 µM | 
16 | CNC(=O)c1c(-c2ccc(F)cc2)oc2nc(NCC(F)(F)C(F)(F)F)c(-c3cccc(C(=O)NC(C)(C)C#N)c3)cc12 [Compound 30001] | < 0.1 µM |  | 
17 | CNC(=O)c1c(-c2ccc(F)cc2)oc2nc(CCC(F)(F)F)c(-c3ccc(OC)c(C(=O)NC4(C#N)CCCC4)c3)cc12 [Compound 12003] | < 0.1 µM |  | 
18 | CNC(=O)c1c(-c2ccc(F)cc2)oc2nc(Cl)c(-c3cccc(C(=O)NC4(C#N)CCC4)c3)cc12 [Compound 10005] | < 0.1 µM |  | 
19 | CNC(=O)c1c(-c2ccc(F)cc2)oc2nc(CCC(F)(F)F)c(-c3cc(C(=O)NC(C)(C)C#N)ccc3F)cc12 [Compound 15002] | < 0.1 µM | 0.0042 µM | 
20 | CNC(=O)c1c(-c2ccc(F)cc2)oc2nc(NCC(F)(F)F)c(-c3cccc(C(=O)NC4(C#N)CC4)c3)cc12 [Compound K4003] | < 0.1 µM | 0.0043 µM | 
21 | CNC(=O)c1c(-c2ccc(F)cc2)oc2nc(CCC(F)(F)F)c(-c3ccc(OC)c(C(=O)NC(C)(C#N)C(C)C)c3)cc12 (stereo not drawn) [Compound 12004] | < 0.1 µM | 0.0033 µM | 
22 | CNC(=O)c1c(-c2ccc(F)cc2)oc2nc(NCC(F)(F)C(F)(F)F)c(-c3cccc(C(=O)NC(C)(C#N)C(C)C)c3)cc12 (stereo not drawn) [Compound 30002] | < 0.1 µM | 0.0394 µM | 
23 | CNC(=O)c1c(-c2ccc(F)cc2)oc2nc(CCC(F)(F)F)c(-c3cccc(C(=O)NC(C)(C#N)C4CC4)c3)cc12 (stereo not drawn) [Compound 11007] |  |  | EC50 ([1]; read-out: EC50 1b (class)): < 0.1 µM; EC50 ([1]; read-out: EC50 (uM) 1b): 0.0027 µM
24 | [2H]C([2H])([2H])Oc1ncc(-c2cc3c(C(=O)NC)c(-c4ccc(F)cc4)oc3nc2CCC(F)(F)F)cc1C(=O)NC(C)(C#N)C1CC1 (stereo not drawn) [Compound 18001] | < 0.1 µM | 0.0037 µM | 
25 | CNC(=O)c1c(-c2ccc(F)cc2)oc2nc(Cl)c(-c3cccc(C(=O)NC(C)(C)C#N)c3)cc12 [Compound 10004] | 0.1 to 1 µM | 0.105 µM | 
26 | CNC(=O)c1c(-c2ccc(F)cc2)oc2nc(CCC(F)(F)F)c(-c3ccc(F)c(C(=O)NC(C)(C)C#N)c3)cc12 [Compound K1003] | < 0.1 µM |  | 
27 | CNC(=O)c1c(-c2ccc(F)cc2)oc2nc(NCCO)c(-c3cccc(C(=O)NC(C)(C)C#N)c3)cc12 [Compound 40001] | < 0.1 µM |  | 
28 | CNC(=O)c1c(-c2ccc(F)cc2)oc2nc(Cl)c(-c3ccc(OC)c(C(=O)NC4(C#N)CCCC4)c3)cc12 [Compound 10003] | < 0.1 µM |  | 
29 | CNC(=O)c1c(-c2ccc(F)cc2)oc2nc(CCC(F)(F)F)c(-c3ccc(F)c(C(=O)NC(C)(C#N)C4CC4)c3)cc12 (stereo not drawn) [Compound 13006] | < 0.1 µM | 0.0036 µM | 
